assay: Human HepG2 cell viability assay in 384 well format; assay type: toxicity, cell-based; design: dose 125 nL, time 70.5 hour; cytotoxicity at 70.5 h: concentration not given beside the values; details: HepG2 cells, read-out: Inhibition

| Structure (SMILES) | cytotoxicity at 70.5 h |
| --- | --- |
| CCN(CC1CCOC1)C(=O)c1ccc(COc2ccccc2C#N)o1 (stereo not drawn) | -3.17% |
| CCCN1CCC(N2CCN(c3cccc(C)n3)CC2)CC1 | 5.86% |
| CCCS(=O)(=O)N1CCO[C@H]2[C@H](OCc3ccccn3)CC[C@@H]21 | -1.48% |
| Cc1ccc(NC2CCN(C(=O)c3cc4c(s3)CCC4)CC2)nn1 | -13.9% |
| CN(C)S(=O)(=O)c1ccc(CN2CCC(C(N)=O)CC2)o1 | -2.97% |
| CCNc1cc2c(nn1)CCN(C(=O)Cc1noc3ccccc13)C2 | -12.5% |
| CC(C)(CO)CCCNC(=O)NC1(C)Cc2ccccc2C1 | -0.326% |
| Cc1nc(C2(NCC(=O)NC(=O)Nc3ccccc3)CCCCC2)no1 | -0.595% |
| CN(C)S(=O)(=O)c1ccc2c(c1)N(Cc1nccn1C)CCC2 | -6.79% |
| N[C@@H](C(=O)N1CCN(c2ccccc2Cl)C(=O)C1)c1ccccc1 | -14.1% |
| O=C(CCn1cncn1)NC1CCc2nccn2C1 (stereo not drawn) | -0.747% |
| COc1ncnc(N)c1CNCCc1ccccc1 | -2.72% |
| CNc1oc(-c2ccc(OC)c(S(=O)(=O)N(C)C)c2)nc1C#N | -9.03% |
| O=C1NC[C@H]2CN(Cc3ccccn3)CCN12 | 0.693% |
| COc1ccc(NC(=O)N(C)Cc2ccsc2)cn1 | -3.11% |
| CCC(CO)N(Cc1ccccn1)C(=O)c1ccc(F)c(F)c1 (stereo not drawn) | -6.83% |
| c1ccc(-n2cnnc2CCCN2CCOCC2)cc1 | -2.59% |
| NCC(=O)N1CCC2(CC1)CN(C(=O)Cc1ccc(Cl)cc1)CCO2 | -14.9% |
| CCC(CO)N(Cc1ccncc1)Cc1c[nH]nc1-c1ccc(F)cc1 (stereo not drawn) | -7.22% |
| CCOC(=O)N1CCN(C(=O)Cn2ccc3ncccc3c2=O)CC1 | -8.19% |
| O=C(c1cccc(Cl)c1)N1CC[C@H]2[C@H]1CCN2CC1CC1 | -9.45% |
| CCC[C@@H]1CN(Cc2cc(C#N)n(C)c2C)C[C@H]1NS(C)(=O)=O | -6.42% |
| CCc1nc(CN2CCCN(C(=O)COC(C)C)CC2)cs1 | 2.07% |

| Structure (SMILES) | cytotoxicity at 70.5 h |
| --- | --- |
| Cc1ccc2nc(CN(C)Cc3ccc(C)o3)cc(=O)n2c1 | -15% |
| COc1ccccc1CC(=O)N1CCC(NCc2cccnc2)CC1 | 24% |
| CCC(CC)n1nc(C)cc1NC(=O)CC1CCOCC1 | -8.16% |
| COc1ccc(-n2nc(C)c(C(C)=O)c2C)cc1CO | 0.889% |
| CC(NCc1cnc(N2CCOCC2)s1)c1ccc(Cl)s1 (stereo not drawn) | -7.8% |
| CO[C@H]1C(=O)N(C)C2(CCNCC2)[C@@H]1C(=O)Nc1ccccc1 | -10.2% |
| CCCS(=O)(=O)N1CCC2(CC(=O)N(c3cnn(C)c3)C2)C1 (stereo not drawn) | -7.78% |
| Cn1nc(C#N)c2c1CN(C(=O)c1cccnc1)CCC2 | 29.4% |
| Cc1cnc(NC(C)Cc2cnccn2)nc1N(C)C (stereo not drawn) | -4.28% |
| CCC(CC)n1nc(C)cc1NC(=O)C1CCOC1 (stereo not drawn) | -6.47% |
| O=C(c1ccsc1)N1CCc2c(COCC3CC3)cncc2C1 | 18.9% |
| CN(C)CCOCC1CN(C(=O)[C@H]2CCCO2)Cc2ccnn2C1 (stereo partly drawn) | -1.09% |
| O=C(NC1CCC1)[C@@H]1C[C@@H]2CCN(Cc3ccncc3)C[C@H]2O1 | -4.89% |
| Cc1n[nH]c(C)c1Sc1ccccc1NC(=O)N1CCOCC(O)C1 (stereo not drawn) | 2.32% |
| O=C(C[C@@H]1COC[C@H]2CN(Cc3ccccn3)C[C@@H]12)N1CCOCC1 | -2.94% |
| CN1C(=O)CC(C(=O)O)C12CCN(Cc1cc(Cl)ccc1F)CC2 (stereo not drawn) | 8.5% |
| CCn1cc(C(=O)N(C)Cc2c(F)cccc2Cl)cn1 | -2.9% |
| CC(C)(C)c1cc(=O)n2c(n1)SCC(C(=O)NCc1ccccn1)C2 (stereo not drawn) | -5.78% |
| O=c1cc(-c2cc(O)cc(CCC3CCCCN3)c2)cc[nH]1 (stereo not drawn) | -6.48% |
| Cc1cnn(CC2CCCN2C(=O)c2csc(C3CC3)n2)c1 (stereo not drawn) | -0.994% |
| O=C1OCCN1CCOc1nc(-c2ccccc2Cl)no1 | -4.69% |
| Cc1ccc(-c2cc(CNC(=O)N3CCC(O)CC3)on2)cc1 | 0.512% |
| CC(=O)N1CC(=O)N(c2ccccc2)CC12CCN(CC1CC1)C2 (stereo not drawn) | 7.19% |

| Structure (SMILES) | cytotoxicity at 70.5 h |
| --- | --- |
| Cc1cc(CN(C)CC2CC(C3CCCCC3)=NO2)no1 (stereo not drawn) | 0.975% |
| CCn1nc(C)cc1C(=O)N1C[C@@H](CN(C)C)[C@@H](CO)C1 | -2.98% |
| CS(=O)(=O)N1CCOCC2(CN(Cc3ccccn3)CCO2)C1 (stereo not drawn) | -5.98% |
| OCCC[C@@H]1CN(c2ncc(Cl)cc2Cl)CC[C@@H]1N1CCOCC1 | 3.21% |
| CC1c2ncc(CN3CCN(C)CC3)n2CCN1Cc1ccsc1 (stereo not drawn) | -0.917% |
| COCCn1ccc2c(NC(=O)C(C)C)cccc21 | -1.52% |
| CC(C)C(NC(=O)C1CCCC1)c1cc(O)nc(-c2cccnc2)n1 (stereo not drawn) | 11% |
| CCSCC(C)NCc1ccccc1-n1ccnc1 (stereo not drawn) | -2.53% |
| C[C@H]1C[C@H]2CN(C(=O)CCOc3ccccc3)CC[C@H]2O1 | -1.04% |
| CC(C)C1CN(C(=O)c2ccc3nccnc3c2)CCS1 (stereo not drawn) | -7.38% |
| Cc1ccccc1-c1noc(CN2CC(n3cccn3)C2)n1 | -5.02% |
| CCN(CC)c1ncnc2c1CCN(c1ccc(C)nn1)CC2 | -1.7% |
| Cc1ccc(CN2Cc3nccn3CC(CN(C)C)C2)s1 (stereo not drawn) | -7.65% |
| Clc1ccc(C2(NCc3noc(C4CC4)n3)CCC2)cc1 | -5.74% |
| Cc1nc(CN2C[C@@H]3CN(C(=O)c4ccoc4C)C[C@@H]3C2=O)cs1 | -10% |
| CCC1=N[C@@]2(CC[C@@H]3CN(CC4CC4)C[C@@H]32)C(=O)N1CC1CC1 | -20.5% |
| COc1ccccc1CNC(Cc1cccs1)c1nc(C)c(C)s1 (stereo not drawn) | 8.5% |
| CS(=O)(=O)N1CCCN(c2nccn3cnnc23)CC1 | -6.97% |
| Cc1nnc2n1CCN(Cc1csc(-c3ccsc3)n1)C2 | -5.37% |
| CC(C)(C)C1CCC(NCCN2CCOCC2)CC1 (stereo not drawn) | -5.37% |
| Cc1nc(CN2CCCC(NCCOc3ccccc3)C2)no1 (stereo not drawn) | -5.84% |
| CCn1ccc(C(=O)Nc2ccc3c(c2)C(C)(C)C(=O)N3C)n1 | -15.5% |
| N#Cc1ccc(CN2C[C@@H](F)[C@@H](OCc3nc4cnccc4[nH]3)C2)cc1 | -1.95% |

| Structure (SMILES) | cytotoxicity at 70.5 h |
| --- | --- |
| CN1CCC(Nc2cc(Cl)ccc2OCC(F)(F)F)C1=O (stereo not drawn) | -1.29% |
| CC(=O)N1CCOCC(Cc2ccc3c(ccn3C(C)=O)c2)C1 (stereo not drawn) | -2.4% |
| Cc1nn(C)cc1-c1cc(-c2cn(C)nc2C)n(CC(=O)NC2CC2)n1 | -7.88% |
| COc1ccccc1CN(Cc1cccnc1)Cc1c[nH]c(C)n1 | 8.36% |
| Cc1nc(C)n(CC2CCCN(Cc3cn4c(C)cccc4n3)C2)n1 (stereo not drawn) | -11.6% |
| COc1ccc2c(c1)CCCN2C(=O)c1cccc(N(C)C)c1 | 3.26% |
| Cn1cncc1CN1CCC2(CCCN2c2ncccn2)CC1 | -8.23% |
| COc1ccc(C2CCCN2C(=O)NCCNc2ccccn2)cc1 (stereo not drawn) | -19.3% |
| c1ccc(CN2CCO[C@H]3[C@H](OCCN4CCCC4)CC[C@@H]32)nc1 | -7.8% |
| CS(=O)(=O)N1CC[C@]2(C[C@@H](Oc3ccccn3)CO2)C1 | -3.36% |
| COc1cccc(CNCc2c(C(C)C)nn(C)c2N(C)C)c1OC | -3.04% |
| CO[C@H]1CO[C@@]2(CCCN(S(=O)(=O)c3ccccc3)C2)C1 | -10.1% |
| CCOc1ccc(CNCCCn2ccnc2)cc1Br | 6.06% |
| CCc1nc2n(n1)CC(NCc1noc(-c3ccccc3)n1)CC2 (stereo not drawn) | 12.2% |
| CC(=O)NCCc1cc(N2CCN(C(C)=O)CC2)nc(C2CC2)n1 | -5.29% |
| CN(C)CCNc1cc(-c2ncccn2)c2cc[nH]c2n1 | -6.11% |
| O=C(NCC1CCOC1)c1cc(-c2cccc(Cl)c2)on1 (stereo not drawn) | -5.03% |
| CCOc1c(Br)cc(CNCCc2nnc3n2CCCCC3)cc1OC | -10.5% |
| Cc1cnn(CC2CCCN2Cc2noc(C)n2)c1 (stereo not drawn) | -9.78% |
| COc1ccc(CCC(=O)N2CCCC(n3cncn3)C2)cc1 (stereo not drawn) | -7.91% |
| Cc1cn2c(n1)CCC(NC(=O)c1cnc(C)nc1C(C)C)C2 (stereo not drawn) | -9% |
| CC(=O)N1CCC(C(=O)Nc2nc(C3CC3)cs2)CC1 | -4.64% |
| CC(CN1CCCC1=O)NC(=O)c1cc(=O)[nH]c2ccc(Cl)cc12 (stereo not drawn) | -85.6% |

| Structure (SMILES) | cytotoxicity at 70.5 h |
| --- | --- |
| CC(=O)N1C[C@H](c2cc(O)nc(C)n2)[C@@H](c2ccccc2F)C1 | -2.65% |
| Cc1cc(CNC(=O)N2CCN(c3ccccc3)CC2)no1 | -3.89% |
| Oc1ccc(Cl)cc1CNCc1ccccc1Cl | -8.63% |
| CC(=O)N1CCN(C(=O)c2cccc(OCc3cscn3)c2)CC1 | 0.43% |
| COc1ccc(OCCNC(=O)N2CCS(=O)(=O)CC2)cc1 | -7.97% |
| CCN1CCC2(CC1)OCCN2C(=O)c1ccc(OC)c(Cl)c1 | 3.75% |
| CC(C)CCN(C(=O)c1cccc(NC(N)=O)c1)C1CC1 | -17.2% |
| Cc1cnn(CCNCc2csc(-c3ccc4c(c3)OCO4)n2)c1 | 10.2% |
| COCCO[C@H]1CCN(C(=O)c2ccoc2C)[C@H]1Cc1cnn(C)c1 | -114% |
| Cn1cc(CNCCC(=O)NCc2ccccc2)c(-c2cccnc2)n1 | 2.26% |
| COc1cccc(C(=O)NCCCN2CCc3ccccc3C2)c1OC | -11.3% |
| CCc1ncc(C(=O)N(C)C2Cc3ccccc3C2)cn1 | 2.28% |
| CN1Cc2ccccc2CC2(CCN(CCO)CC2)C1=O | 18% |
| Cc1cc(CS(=O)(=O)CC(=O)N2c3ccccc3CC2C)no1 (stereo not drawn) | -0.335% |
| Cc1ccc(CN(CCCN2CCOCC2)Cc2[nH]cnc2C)o1 | -2.33% |
| CCNC(=O)[C@@H]1C[C@@H](n2cc(CC3CCCCC3)nn2)CN1 | -9.79% |
| O=C(c1cscn1)N1C[C@@H]2C[C@@H](c3nnc(C4CC4)o3)O[C@@H]2C1 | -8.28% |
| Cc1cc(-c2nc(-c3c(C)ncc4c3CCNC4)no2)nc(C)n1 | 26.9% |
| CCN1C(=O)C[C@@H]2[C@@H]1CCN2S(=O)(=O)c1ccccc1 | -12.3% |
| O=C(NCc1ccccc1)N1CCC(Oc2ncccc2Cl)CC1 | 11% |
| Cc1sc(-n2cnnn2)c(C(=O)NC(C)C)c1C | -10.9% |
